Assay: Electrical conductivity of solutions of the organic salts in non-aqueous solvents
Assay type: physicochemical
Method: A variety of metal carboxylates were prepared in heptane by reacting versatic acid and 2-ethyl hexanoic acid directly with the metal of choice or with a metal base such as the hydride or hydroxide. Lithium, sodium, potassium, rubidium, calcium and gadolinium systems were synthesised.
A 1 molar solution of potassium bis(2-ethylhexyl) phosphate in Brij 30 was then prepared by dissolving 18.02 grams of the salt in 47.5 grams (50 ml) of the solubilising agent.
A 1 molar solution of AOT (Aldrich Chemicals) in Brij 30 was prepared by dissolving 22.23 grams of AOT in 47.5 grams (50 ml) of Brij 30.
The final AOT/neopentyl glycol/Brij 30 solution of FIG. 10 (i.e. 1 molar AOT and 2 molar neopentyl glycol in Brij 30) was then diluted with successive amounts of mineral spirits and the conductivity measured at each addition.

[1] = 1 molar salt and 2 molar neopentyl glycol in Brij 30, diluted: 20% solution, 80% mineral spirits by volume

SMILES	conductivity [1]	conductivity (1 molar solution in Brij 30)	conductivity (1 molar in Brij 30 with 2.0 molar neopentyl glycol, 25° C.)
CCCCC(CC)COP(=O)([O-])OCC(CC)CCCC.[K+] (centres unmarked) [potassium bis(2-ethylhexyl) phosphate]	3.2 ìS/cm	45.5 ìS/cm	
CCCCC(CC)COC(=O)CC(C(=O)OCC(CC)CCCC)S(=O)(=O)O.[Na] (centres unmarked) [AOT, sodium salt of bis(2-ethylhexyl) sulfosuccinate]	1.5 ìS/cm	15.7 ìS/cm	33.5 ìS/cm

— patent US7399731B2, “Electrically conductive non-aqueous wellbore fluid” (M-I L.L.C., priority 2001, dated 2008)
